Consider 7 molecules from publication PMC6640931 (ACS Omega, 2017).

“And” between values parts separate entries of the source, which are not always exact repeats. Identical values can stand only once.

The nature of data set [1]: Solubility in simulated body fluids. In kind it is physicochemical.
Data set [2] can be described thus: Thermogravimetric analysis. In kind it is physicochemical. The settings on record: under nitrogen, 5 °C/min.
The conditions of data set [3]: cited from earlier work.
A short description of data set [4]: Equilibrium solubility in deionized water. The settings on record: for solubility, acyclovir active: DI water (pH 6.92), room temperature; for solubility: DI water (pH = 6.92).
For data set [5] the following is noted: cited from earlier work. This is another data set of the same source.

In the case of `Nc1nc2c(ncn2COCCO)c(=O)[nH]1` [acyclovir (3Acy·2H2O), 9-[(2-hydroxyethoxy)methyl]guanine, reference compound], the solubility in data set [1] (simulated intestinal fluid (SIF), pH 6.8, thermodynamic from solid) was 4440 µM and 1000 µg/mL. Further, the “T5% (decomposition of 5% of the sample), TGA” value in data set [2] came out at 240.1 °C. Moreover, the solubility in water in data set [3] (at 22–25 °C) is 1200 to 1600 µg/mL.

Turning to `C[N+](C)(C)CCO.Nc1nc2c(ncn2COCCO)c(=O)[nH]1` [[Cho][Acy] (1), Choline Acyclovir], the “T5% (decomposition of 5% of the sample), TGA” value in data set [2] came to 131 °C.

On to `CCCCCCCCCCCCCCCC[N+](C)(C)C.Nc1nc2c(ncn2COCCO)c(=O)[n-]1` [[N1,1,1,16][Acy] (4), Hexadecyltrimethylammonium Acyclovir], for which, in data set [4], the “solubility, acyclovir active” value is recorded as 101.3(5) mg active/mL and the “solubility” value was 101.3 mg acyclovir active/mL.

Turning to `CCCCC(CC)COC(=O)CC(C(=O)OCC(CC)CCCC)S(=O)(=O)O.Nc1nc2c(ncn2COCCO)c(=O)[nH]1` (stereo not drawn) [[H2Acy][Doc] (6), Acyclovir Docusate], the “T5% (decomposition of 5% of the sample), TGA” value in data set [2] was 122.1 °C. In addition, in data set [4], the “solubility, acyclovir active” value is reported as 2.948(4) mg active/mL and the “solubility” value turned out to be 2.9 mg acyclovir active/mL.

For the molecule `CCCC[N+](CCCC)(CCCC)CCCC.Nc1nc2c(ncn2COCCO)c(=O)[n-]1` [[N4,4,4,4][Acy] (3), Tetrabutylammonium Acyclovir], the “solubility, acyclovir active” value in data set [1] (PBS, pH 7.4) is on record as 220(20) mg active/mL; in data set [1] (SGF, pH 1.2) it was 170(20) mg active/mL; in data set [1] (SIF, pH 6.8), 140(10) mg active/mL; in data set [4] it was 213.7 mg active/mL. In addition, in data set [1] (across the three media (PBS, SIF, SGF), depending on the medium), the “acyclovir active delivered relative to acyclovir itself” value was “ca. 150 times”. Moreover, the “solubility” value in data set [4] was found to be 213.7 mg acyclovir active/mL.

Regarding `CC(C)[C@H](N)C(=O)OCCOCn1cnc2c(=O)[nH]c(N)nc21` [valacyclovir], in data set [5], the oral bioavailability result is on record as “ca. 55%” and the “oral bioavailability relative to acyclovir” value is 3 times.

Turning to `C[N+](C)(C)CCO.Cc1ccc(C(=O)c2ccc(CC(=O)[O-])n2C)cc1` [choline tolmetin], the “water solubility of choline salt relative to neutral form” value in data set [3] is on record as 8000 times.
